# Assay results: patent US11753432B2, “Compound with analgesic effect for use in prevention and treatment of pain” (Academia Sinica, priority 2017, dated 2023)
# Key:
# [1] = test system: mouse model of fibromyalgia (chronic widespread pain induced by intermittent cold stress); test: Intermittent cold stress (ICS) mouse model of fibromyalgia; mechanical hyperalgesia, hindpaw withdrawal to 0.2-mN von Frey filament; type: in vivo, mice (female C57BL/6JNarl); conditions: for tolerance / therapeutic effect on repeated treatment: 1 mg/kg p.o. once a day for 4 days from day 5 after ICS
# Description: Female C57BL/6JNarl mice aged 8-12 weeks were purchased from the National Laboratory Animal Center (Taipei, Taiwan). The fibromyalgia model was developed by Ueda's group, in which mice were treated with intermittent cold stress for 2 days (Nishiyori, M.; Ueda, H. Prolonged gabapentin analgesia in an experimental mouse model of fibromyalgia. Mol. Pain 2008, 4, 52). Mice treated with intermittent cold stress developed long-lasting (>2 weeks) mechanical and thermal hyperalgesia. Analgesic effects of compound I-a1 (JMF3737) via i.p. (in 0.5% HPβCD) or p.o. (in 1% HPβCD) routes and compound I-d1 (JMF4413) via i.p. (in 0.5% HPβCD) were tested in these mice 5 days after intermittent cold stress. Mechanical hyperalgesia was assayed by testing the withdrawal response of mouse hindpaws to 0.2-mN von Frey filament stimulation.
# Bioavailability = conditions: in vivo; read-out: bioavailability (F)
# Solubility = type: physicochemical
# [2] = Tolerated dose / safety range in the ICS mouse model; type: in vivo
# Description: Female C57BL/6JNarl mice aged 8-12 weeks were purchased from the National Laboratory Animal Center (Taipei, Taiwan). […] Mechanical hyperalgesia was assayed by testing the withdrawal response of mouse hindpaws to 0.2-mN von Frey filament stimulation.
# [3] = biological target: T1, NK1R receptor in muscle nociceptors (Mus musculus, UniProt P30548); test: Whole-cell patch clamp recording on muscle nociceptors (outward current); type: cell-based
# T1 construct: whole-cell patch clamp recording on muscle nociceptors; endogenous in cells; host or cells: muscle nociceptors (primary sensory neurons; preparation not described)
# T1 sequence (P30548 whole entry): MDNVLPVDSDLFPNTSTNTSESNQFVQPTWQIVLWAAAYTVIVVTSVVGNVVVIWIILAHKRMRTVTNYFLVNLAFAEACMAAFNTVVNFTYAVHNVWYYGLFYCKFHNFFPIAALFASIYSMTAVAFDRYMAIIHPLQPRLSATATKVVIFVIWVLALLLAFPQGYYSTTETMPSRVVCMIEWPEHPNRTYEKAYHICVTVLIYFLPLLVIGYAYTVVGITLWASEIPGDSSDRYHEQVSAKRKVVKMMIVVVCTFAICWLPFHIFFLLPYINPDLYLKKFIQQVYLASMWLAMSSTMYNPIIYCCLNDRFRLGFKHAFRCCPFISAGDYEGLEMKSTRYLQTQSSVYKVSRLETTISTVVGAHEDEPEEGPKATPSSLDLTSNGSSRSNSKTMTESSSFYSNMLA
# From the text: The JMF3737-induced outward current (IJMF3737) can cause nociceptor hyperpolarization and thus counteract the acid-induced depolarization in muscle nociceptors and thus inhibit pain associated with tissue acidosis.
# [4] = p.o. (oral gavage), ICS mouse model
smiles,measurement,setting,value
"OC[C@H]1O[C@@H](n2cnc3c(NCc4ccc(O)cc4)ncnc32)[C@H](O)[C@@H]1O [T1-11, N^6-(4-hydroxybenzyl)adenosine, reference compound]",analgesic effect (in words),[1]; ICS mouse model,excellent analgesic effect
same,"dose-dependent analgesic effect, effective dose starting from","[1]; i.p., ICS mouse model",0.03 mg/kg
same,"dose-dependent analgesic effect, effective dose starting from",[1]; [4],8 mg/kg
same,bioavailability,Bioavailability,~5%
same,solubility in dimethylsulfoxide (DMSO),Solubility,good solubility
"O=C(O)CNC(=O)OC[C@H]1O[C@@H](n2cnc3c(NCc4ccc(O)cc4)ncnc32)C(O)C1O (stereo partly drawn) [I-a1, 5′-O-(Glycine-N-carbonyl)-N^6-(4-hydroxybenzyl)adenosine]",pain sensitivity to von Frey filament stimulation after repeated treatment,"[1]; 1 mg/kg oral once a day for 4 days, since day 8, n=4",decreased pain sensitivity
same,acute analgesic effect during repeated treatment,"[1]; 1 mg/kg oral once a day, day 5 to day 8, n=4",shows acute analgesic effect
same,tolerance / therapeutic effect on repeated treatment,[1],no tolerance but therapeutic effect
same,tolerance / therapeutic effect on repeated treatment,[1]; listed as JMF3737,does not cause tolerance
same,analgesic effect (in words),[1]; 2 mg (4 μmol)/kg via oral route,appreciable analgesic effect
same,analgesic effect (in words),[1]; ICS mouse model,superior analgesic effect to that of T1-11
same,"dose-dependent analgesic effect, effective dose starting from","[1]; i.p., ICS mouse model",1 mg/kg
same,"dose-dependent analgesic effect, effective dose starting from",[1]; [4],1 mg/kg
same,analgesic effect compared with T1-11,[1]; via oral route,better analgesic effect over T1-11
same,dose without causing appreciable detrimental effect,[2]; i.p. and p.o.,at least 64 mg/kg
same,induced outward current (IJMF3737) inhibited by NK1R antagonist,"[3]; JMF3737 10 μM with RP67580 10 μM, reversible inhibition",15 pA
same,induced outward current (IJMF3737),"[3]; JMF3737 10 μM, muscle nociceptors",40 pA
"CCCCNC(=O)OC[C@H]1O[C@@H](n2cnc3c(NCc4ccc(O)cc4)ncnc32)C(O)C1O (stereo partly drawn) [Compound 8, 5′-O-(n-Butylaminocarbonyl)-N^6-(4-hydroxybenzyl)adenosine]",melting point,,187.4 to 189 °C
"O=C(O)CNC(=O)NC[C@H]1O[C@@H](n2cnc3c(NCc4ccc(O)cc4)ncnc32)C(O)C1O (stereo partly drawn) [I-d1, 5′-Deoxy-5′-(glycine-N-amido)-N^6-(4-hydroxybenzyl)adenosine]",analgesic effect (in words),"[1]; 64 mg/kg via i.p. route, n=2",good analgesic effect
same,analgesic effect (in words),[1]; ICS mouse model,excellent analgesic effect
same,dose without causing appreciable detrimental effect,[2]; i.p.,64 mg/kg
